Measured values as given in patent US20260297042A1, “BIARYLAMIDE DERIVATIVES AND THEIR USE AS PKMYT1 INHIBITORS” (CANCER RESEARCH TECHNOLOGY LIMITED, priority 2023, published 2026).
pIC50: −log10 of the molar value.

How the values were obtained:
Human PKMYT1 = molecular target: T1, Human PKMYT1 (Homo sapiens, UniProt Q99640); assay: PKMYT1 biochemical ADP-Glo enzymatic assay; conditions: ADP-Glo
T1 construct: Human PKMYT1 75-362 was cloned as a TEV cleavable 6xHis fusion; 6xHis (TEV cleavable) (cleaved yes); made in house; host or cells: bacterial cells
T1 sequence (Q99640 75-362): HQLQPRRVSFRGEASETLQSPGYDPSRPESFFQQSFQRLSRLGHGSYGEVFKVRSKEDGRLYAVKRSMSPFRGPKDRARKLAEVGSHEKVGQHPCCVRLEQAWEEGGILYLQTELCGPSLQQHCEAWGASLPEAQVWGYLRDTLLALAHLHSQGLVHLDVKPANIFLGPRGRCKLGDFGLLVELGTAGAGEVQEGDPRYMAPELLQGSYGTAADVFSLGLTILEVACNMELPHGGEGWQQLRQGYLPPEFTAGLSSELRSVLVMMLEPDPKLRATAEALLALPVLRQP
Outline: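 PKMYT1 75-362 (His-cleaved, bacterial) 15 nM; ATP 500 µM; HEPES pH 7.5, MgCl2, EGTA, Brij-35, 1% DMSO; 60 min, 26 °C; ADP-Glo Max luminescence; 10-pt 3-fold titration → IC50; replicates within 3-fold, r2 >0.9.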

KYSE-30 cells = assay: Cancer cell line proliferation assay, ATP-based cell viability (Cell Titre Glow), KYSE-30 (normal CCNE1); conditions: Homo sapiens, KYSE-30 cells (normal CCNE1), concentration that achieves 50% cell growth proliferation inhibition, read-out: KYSE30 Gl50
Outline: (§1)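 Cells were treated with PKMYT1 inhibitors, then proliferation was assessed with CellTiter-Glo and luminescence read. GI50 values were fitted from the resulting data.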

[1] = molecular target: T2, Cellular PKMYT1 Biomarker CDK1 pT14 (Homo sapiens, UniProt Q99640); assay: Inhibition of cellular PKMYT1 biomarker CDK1 pT14 in OVCAR 3 cells (immunoblot); type: cell-based; conditions: 20 hours incubation
T2 construct: read-out CDK1 phospho-T14 immunoblot
T2 sequence (Q99640 1-499): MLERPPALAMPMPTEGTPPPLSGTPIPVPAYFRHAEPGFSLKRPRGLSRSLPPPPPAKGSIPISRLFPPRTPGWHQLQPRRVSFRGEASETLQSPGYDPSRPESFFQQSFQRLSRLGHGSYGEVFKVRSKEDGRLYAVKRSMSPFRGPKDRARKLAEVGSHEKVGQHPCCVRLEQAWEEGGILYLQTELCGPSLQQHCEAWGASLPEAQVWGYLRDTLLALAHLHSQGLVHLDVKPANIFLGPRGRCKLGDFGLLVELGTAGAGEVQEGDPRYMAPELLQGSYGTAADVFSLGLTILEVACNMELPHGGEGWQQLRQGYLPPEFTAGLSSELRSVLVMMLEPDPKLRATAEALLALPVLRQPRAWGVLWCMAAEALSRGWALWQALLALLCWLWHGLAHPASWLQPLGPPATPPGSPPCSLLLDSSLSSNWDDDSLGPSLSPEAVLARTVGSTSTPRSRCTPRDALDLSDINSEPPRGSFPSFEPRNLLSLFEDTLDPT
Outline: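 Confluent OVCAR 3 cells treated with a compound concentration range for 20 h at 37 °C. Lysates analysed by automated capillary immunoblot for CDK1 phospho-T14, with vinculin, fluorescence detection; IC50 by regression.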

OVCAR 3 cells = assay: Cancer cell line proliferation assay, ATP-based cell viability (Cell Titre Glow), OVCAR 3 (CCNE1-amplified); conditions: KYSE30 (normal CCNE1) GI50 vs. OVCAR 3 (CCNE1-amplified) GI50
Outline: as §1

WEE1 = molecular target: T3, WEE1 (Homo sapiens, UniProt P30291); assay: Selectivity versus WEE1 assay (ADP-Glo enzymatic assay); type: biochemical; conditions: for pIC50: ADP-Glo; for PKMYT1 vs. WEE1 selectivity: fold difference in selectivity for PKMYT1 over WEE1
T3 construct: purchased Thermo Fisher PR7373A
Outline: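 15 nM WEE1, 30 µM ATP, 50 mM HEPES pH 7.5, 10 mM MgCl2, 1 mM EGTA, 0.01% Brij-35, 1% DMSO; 60 min, 26° C; ADP-Glo luminescence; IC50 from curve fit, replicates within 3-fold, r2 >0.9.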

[2] = PKMYT1 kinase domain 15 nM, banded values
[3] = 15 nM PKMYT1 kinase domain, 500 µM ATP, 60 minutes at 26° C., banded
[4] = 15 nM WEE1, 60 minutes at 26° C., banded
[5] = banded, ">N" = at least in this band but could be higher

T3 sequence (P30291 whole entry): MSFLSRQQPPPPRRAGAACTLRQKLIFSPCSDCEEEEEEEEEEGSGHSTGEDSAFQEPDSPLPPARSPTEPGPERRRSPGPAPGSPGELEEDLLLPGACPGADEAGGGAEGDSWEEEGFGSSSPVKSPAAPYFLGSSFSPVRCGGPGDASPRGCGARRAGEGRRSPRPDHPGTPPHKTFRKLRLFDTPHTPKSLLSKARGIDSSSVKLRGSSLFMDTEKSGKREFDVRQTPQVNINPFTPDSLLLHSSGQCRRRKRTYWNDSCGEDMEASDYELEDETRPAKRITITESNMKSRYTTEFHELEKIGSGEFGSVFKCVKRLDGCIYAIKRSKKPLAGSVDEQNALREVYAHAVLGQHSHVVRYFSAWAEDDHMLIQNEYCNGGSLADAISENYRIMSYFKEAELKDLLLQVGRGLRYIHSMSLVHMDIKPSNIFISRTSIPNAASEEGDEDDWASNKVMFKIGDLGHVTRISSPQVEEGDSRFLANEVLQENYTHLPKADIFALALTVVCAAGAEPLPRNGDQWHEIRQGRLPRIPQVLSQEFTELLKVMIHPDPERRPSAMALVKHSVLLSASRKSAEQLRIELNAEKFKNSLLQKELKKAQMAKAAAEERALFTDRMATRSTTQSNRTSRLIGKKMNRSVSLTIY

SMILES | pIC50 (Human PKMYT1; [2]) | GI50 (KYSE-30 cells) [nM] | pIC50 [1] | Selectivity ratio KYSE30 Gl50 vs. OVCAR3 Gl50 (OVCAR 3 cells) | pIC50 (WEE1; WEE1 15 nM, banded values) | PKMYT1 vs. WEE1 selectivity (WEE1; banded) | pIC50 (Human PKMYT1; [3]) | pIC50 (WEE1; [4]) | PKMYT1 vs. WEE1 selectivity (WEE1; [5])
Cc1cn(CC(=O)N2CCC(C(F)(F)F)C2)nc1Nc1ncc(C(=O)Nc2c(C)ccc(O)c2C)s1 (stereo not drawn) [BAA-504, N-(3-hydroxy-2,6-dimethylphenyl)-2-((4-methyl-1-(2-oxo-2-(3-(trifluoromethyl)pyrrolidin-1-yl)ethyl)-1H-pyrazol-3-yl)amino)thiazole-5-carboxamide] | > 7.30 | > 5000 | 6.00 to 7.00 | Y (>20 fold) | 4.96 to 6.00 | X (100-<1000 fold) |  |  | 
Cc1cc(F)cnc1Nc1ncc(C(=O)Nc2c(C)ccc(O)c2C)s1 [BAA-419, 2-((5-fluoro-3-methylpyridin-2-yl)amino)-N-(3-hydroxy-2,6-dimethylphenyl)thiazole-5-carboxamide] | > 7.30 | > 5000 | 6.00 to 7.00 | Y (>20 fold) | < 4.96 | Y (1000-5000 fold) |  |  | 
Cc1ccc(NC(=O)C(C)(C)C)nc1Nc1ncc(C(=O)Nc2c(C)ccc(O)c2C)s1 [BAA-323, N-(3-hydroxy-2,6-dimethylphenyl)-2-((3-methyl-6-pivalamidopyridin-2-yl)amino)thiazole-5-carboxamide] |  | 500 to 5000 | > 7.00 | Y (>20 fold) |  |  | > 7.30 | < 4.96 | Y (1000-5000 fold)
Cc1cn(CC#N)nc1Nc1ncc(C(=O)Nc2c(C)ccc(O)c2Br)s1 [BAA-584, N-(2-Bromo-3-hydroxy-6-methylphenyl)-2-((1-(cyanomethyl)-4-methyl-1H-pyrazol-3-yl)amino)thiazole-5-carboxamide] | > 7.30 | > 5000 | 6.00 to 7.00 | Y (>20 fold) | 6.00 to 7.30 | W (10-<100 fold) |  |  | 
Cc1ccc(O)c(C)c1NC(=O)c1cnc(Nc2nccc3ccc(F)cc23)s1 [BAA-303, 2-((7-fluoroisoquinolin-1-yl)amino)-N-(3-hydroxy-2,6-dimethylphenyl)thiazole-5-carboxamide] |  | 500 to 5000 | > 7.00 | X (3-20 fold) |  |  | > 7.30 | < 4.96 | Y (1000-5000 fold)
Cc1cn(CC(=O)N2CC3(CCC3)C2)nc1Nc1ncc(C(=O)Nc2c(C)ccc(O)c2C)s1 [BAA-381, N-(3-hydroxy-2,6-dimethylphenyl)-2-((4-methyl-1-(2-oxo-2-(2-azaspiro[3.3]heptan-2-yl)ethyl)-1H-pyrazol-3-yl)amino)thiazole-5-carboxamide] |  | > 5000 | > 7.00 | Y (>20 fold) |  |  | > 7.30 | 4.96 to 6.00 | X (100-<1000 fold)
Cc1ccc(O)c(C)c1NC(=O)c1cnc(Nc2ncnc3[nH]ccc23)s1 [BAA-441, 2-((7H-pyrrolo[2,3-d]pyrimidin-4-yl)amino)-N-(3-hydroxy-2,6-dimethylphenyl)thiazole-5-carboxamide] | > 7.30 | > 5000 | > 7.00 | Y (>20 fold) | 4.96 to 6.00 | W (10-<100 fold) |  |  | 
CCN(CCOC)C(=O)Cn1cc(C)c(Nc2ncc(C(=O)Nc3c(C)ccc(O)c3C)s2)n1 [BAA-550, 2-((1-(2-(ethyl(2-methoxyethyl)amino)-2-oxoethyl)-4-methyl-1H-pyrazol-3-yl)amino)-N-(3-hydroxy-2,6-dimethylphenyl)thiazole-5-carboxamide] | > 7.30 | > 5000 | > 7.00 | Y (>20 fold) | 4.96 to 6.00 | X (100-<1000 fold) |  |  | 
Cc1ccc(O)c(C)c1NC(=O)c1cnc(Nc2cccc(CC(=O)N(C3CC3)C3CC3)n2)s1 [BAA-427, 2-((6-(2-(Dicyclopropylamino)-2-oxoethyl)pyridin-2-yl)amino)-N-(3-hydroxy-2,6-dimethylphenyl)thiazole-5-carboxamide] | > 7.30 | > 5000 | > 7.00 | Y (>20 fold) | < 4.96 | Z (>5000 fold) |  |  | 
Cc1cn(C(CO)C(=O)N(C)C2CC2)nc1Nc1ncc(C(=O)Nc2c(C)ccc(O)c2C)s1 (stereo not drawn) [BAA-591, 2-((1-(1-(cyclopropyl(methyl)amino)-3-hydroxy-1-oxopropan-2-yl)-4-methyl-1H-pyrazol-3-yl)amino)-N-(3-hydroxy-2,6-dimethylphenyl)thiazole-5-carboxamide] | > 7.30 | > 5000 | > 7.00 | Y (>20 fold) | 4.96 to 6.00 | X (100-<1000 fold) |  |  | 
Cc1nc(Nc2ncc(C(=O)Nc3c(C)ccc(O)c3C)s2)cc(N2CCOCC2)n1 [BAA-572, N-(3-hydroxy-2,6-dimethylphenyl)-2-((2-methyl-6-morpholinopyrimidin-4-yl)amino)thiazole-5-carboxamide] | > 7.30 | 500 to 5000 | > 7.00 | Y (>20 fold) | 6.00 to 7.30 | W (10-<100 fold) |  |  | 
Cc1ccc(O)c(C)c1NC(=O)c1cnc(Nc2nc(N3CCOCC3)ccc2Cl)s1 [BAA-410, 2-((3-chloro-6-morpholinopyridin-2-yl)amino)-N-(3-hydroxy-2,6-dimethylphenyl)thiazole-5-carboxamide] | > 7.30 | 500 to 5000 | > 7.00 | Y (>20 fold) | 4.96 to 6.00 | X (100-<1000 fold) |  |  | 
Cc1ccc(O)c(C)c1NC(=O)c1cnc(Nc2nc(N3CCN(C)CC3)ccc2Cl)s1 [BAA-414, 2-((3-chloro-6-(4-methylpiperazin-1-yl)pyridin-2-yl)amino)-N-(3-hydroxy-2,6-dimethylphenyl)thiazole-5-carboxamide] | > 7.30 | 500 to 5000 | > 7.00 | Y (>20 fold) | 4.96 to 6.00 | X (100-<1000 fold) |  |  | 
Cc1ccc(O)c(C)c1NC(=O)c1cnc(Nc2cccc(N(C)C)n2)s1 [BAA-417, 2-((6-(dimethylamino)pyridin-2-yl)amino)-N-(3-hydroxy-2,6-dimethylphenyl)thiazole-5-carboxamide] | > 7.30 | 500 to 5000 | 6.00 to 7.00 | Y (>20 fold) | < 4.96 | X (100-<1000 fold) |  |  | 
COc1ccnc(Nc2ncc(C(=O)Nc3c(C)ccc(O)c3C)s2)c1 [BAA-418, N-(3-hydroxy-2,6-dimethylphenyl)-2-((4-methoxypyridin-2-yl)amino)thiazole-5-carboxamide] | > 7.30 | 500 to 5000 | > 7.00 | Y (>20 fold) | 4.96 to 6.00 | X (100-<1000 fold) |  |  | 
